Four molecules from patent US20250018048A1, “FLUCONAZOLE-COX INHIBITOR HYBRIDS: A DUAL-ACTING CLASS OF ANTIFUNGAL AZOLES” (Ramot at Tel-Aviv University Ltd., priority 2022, published 2025) can be followed below.

Values after ≈ are worked out from the molar mass of the structure shown. A value given as a limit tells only on which side of the number the result lay.

Common to all, as to assay type: cell-based
One experiment has as its system C. albicans SN152. Description: MIC80 broth double-dilution assay. To be noted: for MIC80: Candida albicans, SN152, 24 h, read-out: MIC80 against C. albicans SN152; for MIC80 against C. albicans SN152: YPAD medium, 30° C., 24 h, parent strain of the erg11ΔΔ/erg3ΔΔ mutant. The procedure, abridged:
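CLSI M27-A3-based broth microdilution in YPAD, cells diluted from 1×10^−3 OD600 suspension 1:100, hybrids double-diluted from 64 to 0.003 μg/mL. After 24 h at 30 °C, MIC80 is the OD600 reduction >80% versus no-drug wells; triplicate, two independent experiments.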

In the next experiment the test system is C. guilliermondii T-47. Description: MIC80 broth double-dilution assay. The following applies: YPAD medium, 30° C., 24 h; for MIC80: Meyerozyma guilliermondii, T47, read-out: MIC80 against C. guilliermondii T-47. The procedure, abridged:
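Broth double dilution following modified CLSI M27-A3, YPAD medium, compound range 64 to 0.003 μg/mL; inoculum from 1×10^−3 OD600 suspension diluted 1:100. After 24 h at 30 °C, MIC80 taken as lowest concentration reducing OD600 by >80% versus no-drug control; triplicates, fluconazole and voriconazole as controls.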

The test system of the next experiment is C. auris ATCC MYA5001. Description: MIC broth double-dilution assay with MTT (CLSI M27-A3). The following applies: 37° C., 24 h; for MIC: Candidozyma auris, ATCCMYA5001, YPAD medium, growth score 0 or 1, read-out: MIC against C. auris 5001; for MIC against C. auris 5001: YPAD medium, growth score 0 or 1. Here is the method: (§1) Minimal inhibitory concentration broth double-dilution assay: C. auris minimal inhibitory concentrations (MICs) were determined using CLSI M27-A3 guidelines with minor modifications. Starter cultures were streaked from glycerol stock onto YPAD agar plates and grown for 24 h at 37° C. Colonies were suspended in 1 mL PBS and diluted to 1×10^−3 optical density at 600 nm (OD600) and then diluted 1:100 into fresh medium. hybrids dissolved in DMSO were added to YPAD broth (32 μL stock solution in 1218 μL of YPAD broth), and serial double dilutions of hybrids in YPAD were prepared in flat-bottomed 96-well microplates (Corning) to enable testing of concentrations ranging from 64 μg/mL to 0.007 μg/mL. Control wells with yeast cells but no drug and blank wells containing only YPAD were prepared. An equal volume (100 μL) of yeast suspension in YPAD broth was added to each well with the exceptions of the blank wells. After incubation for 24 h at 37° C., MTT (50 μL of a 1 mg/mL solution in ddH2O) was added to each well followed by additional incubation at 37° C. for 2 h. MIC values (Table S3) were defined as the lowest concentration of an antifungal agent that caused a specified reduction in visible growth as per the CLSI M27-A3 protocol. The magnitude of reduction in visible growth was assessed using the following numerical scale: 0, optically clear; 1, slightly hazy; 2, prominent decrease (˜50%) in visible growth; 3, slight reduction in visible growth; and 4, no reduction in visible growth. The MIC was defined based on reduction in growth to 0 or 1. Results were confirmed in two independent experiments, and each concentration was tested in triplicate. FLC and VOR were used as control drugs.

In a further experiment the test system is C. auris ATCC MYA5002. The experiment is described as above. To be noted: 37° C., 24 h; for MIC: Candidozyma auris, ATCCMYA5002, YPAD medium, growth score 0 or 1, read-out: MIC against C. auris 5002; for MIC against C. auris 5002: YPAD medium, growth score 0 or 1. As for the experimental part:
as §1

The subject of experiment [1] is erg11ΔΔ/erg3ΔΔ mutant C. albicans. Briefly: Growth curve analysis of C. albicans lacking CYP51. To be noted: YPAD, 30° C., 48 h. As for the experimental part: The clinically used FLC and VOR act primarily by preventing ergosterol biosynthesis via inhibition of CYP51. Analysis was done to determine whether fungal growth inhibition by the hybrids required the presence of the ERG11 gene that encodes for CYP51. The antifungal activities of hybrids 1 and 5 and of FLC and VOR were determined against an erg11ΔΔ/erg3ΔΔ mutant C. albicans strain and against C. albicans SN152 from which this double knockout strain was derived (Table S2). […] Yeast growth was followed at OD600 over 48 h in 96-well plates containing serial double dilutions of the tested hybrids.
Cells of erg11ΔΔ/erg3ΔΔ mutant C. albicans were grown in YPAD media at 30° C. and treated with different concentrations of the tested hybrids. Growth was measured by recording the OD600 values every 40 minutes over a 48-h course on an automated plate reader.
Growth curve analyses: Growth curves were determined using the double-dilution method in 96-well plates. Starter cultures were streaked from glycerol stock onto YPAD agar plates and grown for 24 h at 30° C. Colonies were suspended in 1 mL PBS and diluted to 1×10^−3 OD600 and then diluted 1:100 into fresh medium. Hybrids dissolved in DMSO were added to YPAD broth (32 μL stock solution in 1218 μL of YPAD broth), and serial double dilutions of hybrids in YPAD were prepared in flat-bottomed 96-well microplates (Corning) to enable testing of concentrations ranging from 64 μg/mL to 1 μg/mL. Control wells with yeast cells but no drug (100% growth) and blank wells containing only YPAD (0% growth) were prepared. An equal volume (100 μL) of yeast suspensions in YPAD broth was added to each well with the exceptions of the blank wells. Growth was determined at 30° C. by measuring the OD600 using a plate reader (Infinite M200 PRO, Tecan) every 40 minutes over 48 h. Each concentration was tested in triplicate, and results were confirmed by two independent sets of experiments. FLC and VOR were used as control drugs.

The mark [2] stands for this setting: entire range of concentrations (64 to 1 μg/mL).

As for `C[C@@H](c1ncncc1F)[C@](O)(Cn1cncn1)c1ccc(F)cc1F` [VOR, voriconazole, reference compound], the figures for the MIC80 in the experiment on C. albicans SN152 and in the experiment on C. guilliermondii T-47 were 0.007 µg/mL (≈ 0.02 µM) and 0.06 µg/mL (≈ 0.172 µM), respectively. In addition, the MIC amounted to 0.03 µg/mL (≈ 0.0859 µM) in the experiment with C. auris ATCC MYA5001 and 1 µg/mL (≈ 2.86 µM) in the experiment with C. auris ATCC MYA5002. Besides, in experiment [1] (at 64 μg/mL, the highest concentration tested), the “Effect on growth (OD600) of the double knockout mutant” value (from here on “Effect on growth (OD600)”) is “Modest reduction in growth”.
On to `CC(C)Cc1ccc([C@H](C)C(=O)NC[C@](O)(Cn2cncn2)c2ccc(F)cc2F)cc1` [Hybrid 1], for which the “MIC80 against C. albicans SN152” value in the experiment on C. albicans SN152 was 0.003 µg/mL (≈ 0.00678 µM). Also, in the experiment with C. guilliermondii T-47, the “MIC80 against C. guilliermondii T-47” value was 0.06 µg/mL (≈ 0.136 µM). The “MIC against C. auris 5001” value in the experiment with C. auris ATCC MYA5001 was 0.06 µg/mL (≈ 0.136 µM). In addition, the “MIC against C. auris 5002” value with C. auris ATCC MYA5002 amounted to 1 µg/mL (≈ 2.26 µM). In experiment [1] (setting [2]), the “Effect on growth (OD600)” value is “clear dose-dependent reduction in growth”.
As to `OC(Cn1cncn1)(Cn1cncn1)c1ccc(F)cc1F` [FLC, fluconazole], the MIC80 with C. albicans SN152 was 0.5 µg/mL (≈ 1.63 µM); with C. guilliermondii T-47, 4 µg/mL (≈ 13.1 µM). Moreover, the minimum inhibitory concentration (MIC) is 8 µg/mL (≈ 26.1 µM) in the experiment with C. auris ATCC MYA5001 and above 64 µg/mL with C. auris ATCC MYA5002. For the same molecule, in experiment [1] (setting [2]), the “Effect on growth (OD600)” value is “no significant effect on the growth”.
Regarding `C[C@H](C(=O)NC[C@](O)(Cn1cncn1)c1ccc(F)cc1F)c1ccc(-c2ccccc2)c(F)c1` [Hybrid 5], the “MIC80 against C. albicans SN152” value in the experiment on C. albicans SN152 turned out to be 0.007 µg/mL (≈ 0.0146 µM). Moreover, the “MIC80 against C. guilliermondii T-47” value against C. guilliermondii T-47 was 0.5 µg/mL (≈ 1.04 µM). In addition, in the experiment on C. auris ATCC MYA5001, the “MIC against C. auris 5001” value is 0.06 µg/mL (≈ 0.125 µM). Also, in the experiment with C. auris ATCC MYA5002, the “MIC against C. auris 5002” value stood at 4 µg/mL (≈ 8.32 µM). Further, the “Effect on growth (OD600)” value in experiment [1] (setting [2]) is “clear dose-dependent reduction in growth”.

The MIC80 is the lowest concentration that inhibits either 80% of growth or 80% of the strains tested, depending on the study. For orientation: MIC means the smallest concentration in the dilution series that meets the test's criterion for growth inhibition.
